The results in this text go back to publication PMC8521015, “Salicylic Acid, a Plant Hormone, Suppresses Phytophagous Insect Immune Response by Interrupting HMG-Like DSP1” (Frontiers in Physiology, 2021).

The assay deals with T1, Se-DSP1 (Spodoptera exigua, UniProt A0A5P9L9K9).
T1 construct: full-length ORF, 505 residues; pET vector, bacterial expression, 6xHis and V5 tags, Ni-NTA then Sephadex G-100
T1 sequence (A0A5P9L9K9 1-505): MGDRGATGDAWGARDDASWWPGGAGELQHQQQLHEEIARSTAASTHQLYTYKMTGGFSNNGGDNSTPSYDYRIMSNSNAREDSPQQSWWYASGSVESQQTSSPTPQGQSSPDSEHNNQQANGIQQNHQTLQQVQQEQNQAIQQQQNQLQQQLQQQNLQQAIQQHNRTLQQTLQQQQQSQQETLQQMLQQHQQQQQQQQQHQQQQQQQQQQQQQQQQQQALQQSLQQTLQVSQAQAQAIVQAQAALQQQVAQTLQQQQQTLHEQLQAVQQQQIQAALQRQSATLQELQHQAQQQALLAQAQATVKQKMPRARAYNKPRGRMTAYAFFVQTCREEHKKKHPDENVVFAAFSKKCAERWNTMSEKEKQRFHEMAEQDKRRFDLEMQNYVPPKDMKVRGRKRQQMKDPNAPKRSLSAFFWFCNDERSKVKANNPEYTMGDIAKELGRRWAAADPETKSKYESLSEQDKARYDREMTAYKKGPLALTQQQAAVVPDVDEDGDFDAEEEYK
Briefly: thermal shift assay (Protein Thermal Shift dye, StepOne real-time PCR). The conditions noted are these: 0-20 μM SA; 500 ng protein; 25-99 °C at 2.96 °C/min; ligand binding equation fit of melting temperatures.

Molecules are shown by their SMILES.

As to `O=C(O)c1ccccc1O` [SA, 2-hydroxybenzoic acid], the Kd was found to be 1280 ± 50 nM.
